# Results published in US9708287B2, “Chiral compounds, compositions, products and methods employing same” (Cayman Chemical Company Incorporated, priority 2012, dated 2017).
# Tested on: human skin
# Experiment: topical administration to a human in need of beautifying
# Type: in vivo
# Conditions: twice daily treatments, after several weeks
# Protocol: The chiral, non-racemic analog, (+) deoxyArbutin ((+)-dA), prepared as described in Example I is administered topically to a human in need of beautifying.
compound,measurement,value
"Oc1ccc(OC2CCCCO2)cc1 (racemic) [(+) deoxyArbutin, 4-(tetrahydro-2H-pyran-2-yloxy)phenol]",health and vitality of the treated areas of the skin,increased health and vitality
same,pigmentation of the treated areas of the skin,decreased pigmentation
